From patent US20200031778A1, “NOVEL 5-SUBSTITUTED IMIDAZOLYLMETHYL DERIVATIVES” (Bayer CropScience Aktiengesellschaft, priority 2016, published 2020)

test: Log P by HPLC on reversed phase columns (EEC directive 79/831 Annex V.A8; methods [a], [b], [c]); format: physicochemical; conditions: not given
In short: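 Reversed-phase HPLC with LC-UV detection, 10→95% acetonitrile linear gradient; aqueous eluent 0.1% formic acid [a], 0.001 M ammonium acetate, neutral [b], or 0.1% phosphoric acid [c]. Calibrated against C3–C16 alkan-2-ones of known Log P by retention-time linear interpolation; multiple values within a method separated by "+".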

SMILES	LogP
N#Cc1cncn1CC(O)(c1ccc(Cl)nc1F)C1(F)CC1 (stereo not drawn) [I-552]	1.96^[a]
OC(Cn1cncc1F)c1cnc(Oc2ccc(C(F)F)cc2)cc1C(F)(F)F (stereo not drawn) [I-116]	2.11^[a]
C[Si](C)(CCC(O)(Cn1cncc1C#N)C1(Cl)CC1)c1ccccc1 (stereo not drawn) [I-667]	3.70^[a]
OC(Cn1cncc1Br)c1ccc(Oc2ccc(I)cc2)cc1Cl (stereo not drawn) [I-28]	2.88^[a]
OC(Cn1cncc1Br)c1ccc(Oc2ccc(I)cc2)cc1Br (stereo not drawn) [I-109]	2.78^[a]
OC(Cn1cncc1F)c1cnc(Oc2ccc(C(F)(F)F)cc2)cc1Cl (stereo not drawn) [I-126]	2.27^[a]
CCOC(Cn1cncc1C#N)c1ccc(Oc2ccc(Cl)cc2)cc1C(F)(F)F (stereo not drawn) [I-84]	4.54^[a]
C[Si](C)(C)C#CC(O)(Cn1cncc1C#N)C1(F)CC1 (stereo not drawn) [I-600]	2.45^[a]
CCOC(Cn1cncc1C#N)c1ccc(Oc2ccc(Br)cc2)cc1C(F)(F)F (stereo not drawn) [I-91]	4.69^[a]
CC(C)C(O)(Cn1cncc1C#N)c1ccccc1C(F)(F)F (stereo not drawn) [I-345]	2.46^[a]
COC(Cn1cncc1C#N)c1ccc(Oc2ccc(Cl)cc2)cc1C(F)(F)F (stereo not drawn) [I-81]	4.15^[a]
CC(O)(Cn1cncc1Br)c1ccc(Oc2ccc(I)cc2)cc1Cl (stereo not drawn) [I-172]	3.17^[a]
N#Cc1cncn1CC(O)c1ccc(Oc2ccc(OC(F)(F)F)cc2)nc1C(F)(F)F (stereo not drawn) [I-137]	3.12^[a]
O=C(Cn1cncc1F)c1ccc(Oc2ccc(S(F)(F)(F)(F)F)cc2)nc1C(F)(F)F [IX-136]	3.06^[a]
N#Cc1cncn1CC(O)c1ccc(Oc2ccc(Cl)nc2)cc1C(F)(F)F (stereo not drawn) [I-10]	2.59^[a]
OC(C#CCC1CCCCC1)(Cn1cncc1C(F)(F)F)C1(Cl)CC1 (stereo not drawn) [I-601]	4.05^[a]
CC(O)(Cn1cncc1Cl)c1ccc(Oc2ccc(C(F)(F)F)cc2)cc1 (stereo not drawn) [I-161]	2.51^[a]
N#Cc1cncn1CC(O)c1ccc(Oc2ccc(Br)nc2)nc1C(F)(F)F (stereo not drawn) [I-154]	2.46^[a]
N#Cc1cncn1CC(O)c1ccc(Oc2ccc(S(F)(F)(F)(F)F)cc2)nc1Cl (stereo not drawn) [I-68]	3.15^[a]
CC(O)(Cn1cncc1F)c1ccc(Oc2ccc(Br)nc2)nc1C(F)(F)F (stereo not drawn) [I-363]	1.84^[a]
OC(CCC1CCCC1)(Cn1cncc1C(F)(F)F)C1(Cl)CC1 (stereo not drawn) [I-674]	4.10^[a]
OC(Cn1cncc1Cl)c1ccc(Oc2ccc(I)cc2)cc1Br (stereo not drawn) [I-101]	2.80^[a]
C[Si](C)(C)CCC(O)(Cn1cncc1C(F)(F)F)C1(Cl)CC1 (stereo not drawn) [I-691]	4.24^[a]
N#Cc1cncn1CC(O)c1ccc(Oc2ccc(C(F)F)cc2)nc1C(F)(F)F (stereo not drawn) [I-145]	2.77^[a]
CC(O)(Cn1cncc1F)c1ccc(Oc2ccc(Cl)cc2)nc1F (stereo not drawn) [I-214]	1.98^[a]
CC(=O)c1cncn1CC(C)(O)c1ccc(Oc2ccc(C(C)C)cc2)nc1C(F)(F)F (stereo not drawn) [I-299]	3.33^[a]
CC(O)(Cn1cncc1Br)c1ccc(Oc2ccc(Br)cc2)cc1C(F)(F)F (stereo not drawn) [I-192]	3.03^[a]
CC(O)(Cn1cncc1F)c1ccc(Oc2ccc(Cl)cc2)nc1C(F)(F)F (stereo not drawn) [I-257]	2.32^[a]

Results, then the compound that gave them:

LogP	SMILES
2.40^[a]	N#Cc1cncn1CC(O)(c1ccc(F)c(Br)c1)C1(F)CC1 (stereo not drawn) [I-470]
3.35^[a]	CC(C)(C)CC(O)(Cn1cncc1C#N)c1ccc(C(F)(F)F)cc1 (stereo not drawn) [I-272]
2.34^[a]	N#Cc1cncn1CC(O)(c1cc(F)c(F)c(F)c1)C1(F)CC1 (stereo not drawn) [I-500]
2.73^[a]	C/C=C(\C)C(O)(Cn1cncc1C#N)c1ccc(Cl)cc1F (stereo not drawn) [I-397]
2.70^[a]	C[Si](C)(C)C#CC(O)(CC1CC1)Cn1cncc1C#N (stereo not drawn) [I-454]
2.67^[a]	N#Cc1cncn1CC(O)(CC1CC1)c1c(F)cc(Cl)cc1F (stereo not drawn) [I-512]
2.31^[a]	CC(C)C(O)(Cn1cncc1C#N)c1ccc(Cl)cc1 (stereo not drawn) [I-288]
3.31^[a]	CC(C)(C)C(O)(Cn1cncc1C#N)c1cc(F)c(Cl)c(Cl)c1 (stereo not drawn) [I-545]
2.43^[a]	CC(O)(Cn1cncc1C#N)c1cnc(Oc2ccc(Cl)nc2)cc1C(F)(F)F (stereo not drawn) [I-360]
2.54^[a]	N#Cc1cncn1CC(O)(c1cc(F)c(Cl)c(F)c1)C1(F)CC1 (stereo not drawn) [I-475]
3.63^[a]	CCCC(C)C(O)(Cn1cncc1C#N)c1ccc(Cl)cc1Cl (single isomer, unassigned) [I-315]
2.37^[a]	N#Cc1cncn1CC(O)(c1ccccc1Br)C1(Cl)CC1 (stereo not drawn) [I-255]
3.29^[a]	N#Cc1cncn1CC(O)(C#CCC1CCCCC1)CC1CC1 (stereo not drawn) [I-428]
3.65^[a]	CCCC#Cc1ccc(C(O)(Cn2cncc2C#N)C2(Cl)CC2)c(Cl)c1 (stereo not drawn) [I-655]
2.82^[a]	N#Cc1cncn1CC(O)(CC1CC1)c1ccc(Br)cc1Br (stereo not drawn) [I-429]
3.39^[a]	CC(C)CC(O)(Cn1cncc1C#N)c1ccc(Cl)cc1Cl (stereo not drawn) [I-303]
2.52^[a]	N#Cc1cncn1CC(O)(c1ccc(F)c(Cl)c1F)C1(Cl)CC1 (stereo not drawn) [I-627]
2.51^[a]	N#Cc1cncn1CC(O)(c1ccc(Cl)cc1Cl)C1(F)CC1 (stereo not drawn) [I-237]
3.07^[a]	CC(C)(C)C(O)(Cn1cncc1C#N)c1cc(F)c(F)c(Cl)c1 (stereo not drawn) [I-544]

LogP	SMILES
2.25^[a]	N#Cc1cncn1CC(O)(c1cccc(F)c1Cl)C1(Cl)CC1 (stereo not drawn) [I-557]
3.12^[a]	N#Cc1cncn1CC(O)(c1ccc(Cl)cc1F)C1CCCC1 (stereo not drawn) [I-458]
2.88^[a]	CC(C)(C)C(O)(Cn1cncc1C#N)c1cc(F)cc(Cl)c1 (stereo not drawn) [I-495]
2.39^[a]	N#Cc1cncn1CC(O)(c1cc(Cl)ccc1Cl)C1(F)CC1 (stereo not drawn) [I-623]
3.22^[a]	CC(C)(C)C(O)(Cn1cncc1C#N)c1cc(Cl)cc(Cl)c1 (stereo not drawn) [I-463]
2.41^[a]	N#Cc1cncn1CC(O)(c1ccc(F)cc1Cl)C1CC1 (stereo not drawn) [I-412]
2.45^[a]	N#Cc1cncn1CC(O)(c1c(F)cc(F)cc1Cl)C1(Cl)CC1 (stereo not drawn) [I-563]
2.29^[a]	N#Cc1cncn1CC(O)(CC1CC1)c1cc(F)cc(F)c1 (stereo not drawn) [I-502]
3.65^[a]	CCCCC(O)(Cn1cncc1C#N)c1ccc(C(F)(F)F)cc1Cl (stereo not drawn) [I-266]
3.16^[a]	CC(C)(C)C(O)(Cn1cncc1C#N)c1ccc(Cl)c(Cl)c1 (stereo not drawn) [I-456]
2.74^[a]	CC(C)(C)C(O)(Cn1cncc1C#N)c1ccc(Cl)cc1 (stereo not drawn) [I-284]
2.92^[a]	N#Cc1cncn1CC(O)(C#CC1CCc2ccccc21)C1(Cl)CC1 (stereo not drawn) [I-602]
3.11^[a]	N#Cc1cncn1CC(O)(c1ccc(C#CC2CC2)cc1F)C1(Cl)CC1 (stereo not drawn) [I-651]
3.50^[a]	C[Si](C)(C)CC(O)(Cn1cncc1C#N)c1ccccc1Br (stereo not drawn) [I-307]
2.69^[a]	CC(C)C(O)(Cn1cncc1C#N)c1ccc(F)cc1Br (stereo not drawn) [I-424]
2.44^[a]	CC(C)(C)CC(O)(Cn1cncc1C#N)C1(F)CC1 (stereo not drawn) [I-374]
3.57^[a]	CC(C)(C)C#Cc1ccc(C(O)(Cn2cncc2C#N)C2(F)CC2)c(F)c1 (stereo not drawn) [I-646]
2.17^[a]	N#Cc1cncn1CC(O)(c1ccc(F)c(F)c1)C1(F)CC1 (stereo not drawn) [I-445]

same assay, conditions: reversed phase HPLC column; method [a]: LC-UV, acidic range, 0.1% formic acid in water and acetonitrile as eluent (linear gradient from 10% to 95% acetonitrile)

chromatographic logP	SMILES
1.59	O=Cc1ccc(Oc2ccc(C(=O)Cn3cncc3F)c(Cl)n2)cc1 [IX-85]
2.64	COc1ccc(Oc2ccc(C(=O)Cn3cncc3Cl)c(Cl)n2)c(Cl)c1 [IX-24]
1.94	N#Cc1cncn1CC(=O)c1ccc(Cl)cc1F [IX-147]
2.86	O=C(Cn1cncc1Br)c1ccc(Oc2ccc(Cl)cc2)cc1F [IX-46]
